Results: PubChem BioAssay (NCI)
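Dose response: 5 concentrations. Exposure: 48 h. Format: 96-well plates. Endpoint: linear interpolation; highest concentration if not reached. The concentration for 50% growth inhibition is given as GI50. TGI is the concentration that stops growth completely.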

Columns and labels:
Experiment in all cases: NCI-60 cell line screen, 48 h
[1] = tested on: U251 CNS
[2] = tested on: NCI/ADR-RES ovarian
[3] = tested on: SK-MEL-28 melanoma
[4] = tested on: OVCAR-4 ovarian
[5] = tested on: T-47D breast
[6] = tested on: HCT-116 colon
[7] = tested on: RPMI-8226 leukemia
[8] = tested on: ACHN renal
[9] = tested on: SK-MEL-5 melanoma
[10] = tested on: SK-OV-3 ovarian
[11] = tested on: KM12 colon
[12] = tested on: SNB-19 CNS
[13] = tested on: TK-10 renal
[14] = tested on: MALME-3M melanoma
[15] = tested on: BT-549 breast
[16] = tested on: COLO 205 colon
[17] = tested on: SK-MEL-2 melanoma
[18] = tested on: HCT-15 colon
[19] = tested on: NCI-H23 lung
[20] = tested on: OVCAR-3 ovarian
[21] = tested on: HL-60(TB) leukemia
[22] = tested on: HOP-92 NSCLC
[23] = tested on: SW-620 colon
[24] = tested on: RXF 393 renal
[25] = tested on: SR leukemia
[26] = tested on: MDA-MB-231 breast
[27] = tested on: UACC-62 melanoma
[28] = tested on: OVCAR-8 ovarian
[29] = tested on: NCI-H460 lung
[30] = tested on: NCI-H522 lung
[31] = tested on: MDA-MB-468 breast
[32] = tested on: NCI-H226 lung
[33] = tested on: OVCAR-5 ovarian
[34] = tested on: SF-268 CNS
[35] = tested on: IGROV1 ovarian
[36] = tested on: PC-3 prostate
[37] = tested on: DU-145 prostate
[38] = tested on: 786-0 renal
[39] = tested on: A549 NSCLC
[40] = tested on: CCRF-CEM leukemia
[41] = tested on: SF-539 CNS
[42] = tested on: A498 renal
[43] = tested on: HT29 colon
[44] = tested on: MOLT-4 leukemia
[45] = tested on: EKVX NSCLC
[46] = tested on: HCC-2998 colon
[47] = tested on: CAKI-1 renal
[48] = tested on: SN12C renal
[49] = tested on: HOP-62 NSCLC
[50] = tested on: UACC-257 melanoma
[51] = tested on: UO-31 renal
[52] = tested on: HS 578T breast
[53] = tested on: M14 melanoma
[54] = tested on: MDA-MB-435
[55] = tested on: SNB-75 CNS

How did the GI50 [1] turn out when Cn1cc(-c2cc(N)n3nc(-c4cn(C)c5ccccc45)cc3n2)c2cc(Br)ccc21 was run?
The GI50 was 1790 nM.

What about the TGI [1] of the same molecule?
Its TGI is 3650 nM.

What about the GI50 [2] of the same molecule?
The GI50 was 2450 nM.

What about the TGI [2] of the same molecule?
Its TGI is 6770 nM.

What about the GI50 [3] of the same molecule?
The GI50 was 1720 nM.

What about the TGI [3] of the same molecule?
The TGI was 3140 nM.

What about the GI50 [4] of the same molecule?
The GI50 was 2460 nM.

What about the TGI [4] of the same molecule?
The TGI was 6340 nM.

What about the GI50 [5] of the same molecule?
The GI50 was 2070 nM.

And the TGI [5]?
The TGI was 5700 nM.

What about the GI50 [6] of the same molecule?
The GI50 was 1590 nM.

And the TGI [6]?
The TGI was 2930 nM.

And the GI50 [7]?
Its GI50 is 2480 nM.

What about the TGI [7] of the same molecule?
The TGI was 8150 nM.

And the GI50 [8]?
The GI50 was 1780 nM.

What about the TGI [8] of the same molecule?
Its TGI is 4050 nM.

What about the GI50 [9] of the same molecule?
The GI50 was 1890 nM.

And the TGI [9]?
The TGI was 3500 nM.

What about the GI50 [10] of the same molecule?
The GI50 was 3720 nM.

And the TGI [10]?
Its TGI is 17200 nM.

What about the GI50 [11] of the same molecule?
The GI50 was 2020 nM.

And the TGI [11]?
The TGI was 4660 nM.

And the GI50 [12]?
Its GI50 is 3240 nM.

And the TGI [12]?
Its TGI is 25900 nM.

And the GI50 [13]?
Its GI50 is 2190 nM.

And the TGI [13]?
The TGI was 4810 nM.

And the GI50 [14]?
Its GI50 is 1660 nM.

And the TGI [14]?
Its TGI is 3080 nM.

What about the GI50 [15] of the same molecule?
Its GI50 is 2290 nM.

What about the TGI [15] of the same molecule?
The TGI was 5650 nM.

What about the GI50 [16] of the same molecule?
Its GI50 is 1950 nM.

What about the TGI [16] of the same molecule?
The TGI was 3900 nM.

What about the GI50 [17] of the same molecule?
The GI50 was 1680 nM.

And the TGI [17]?
Its TGI is 3360 nM.

What about the GI50 [18] of the same molecule?
The GI50 was 1710 nM.

What about the TGI [18] of the same molecule?
Its TGI is 4590 nM.

And the GI50 [19]?
The GI50 was 2360 nM.

What about the TGI [19] of the same molecule?
The TGI was 7020 nM.

What about the GI50 [20] of the same molecule?
Its GI50 is 2220 nM.

And the TGI [20]?
The TGI was 5160 nM.

And the GI50 [21]?
The GI50 was 2080 nM.

What about the TGI [21] of the same molecule?
Its TGI is 5530 nM.

What about the GI50 [22] of the same molecule?
The GI50 was 1480 nM.

What about the TGI [22] of the same molecule?
The TGI was 3160 nM.

What about the GI50 [23] of the same molecule?
The GI50 was 2160 nM.

And the TGI [23]?
The TGI was 5000 nM.

And the GI50 [24]?
Its GI50 is 1800 nM.

And the TGI [24]?
Its TGI is 3460 nM.

What about the GI50 [25] of the same molecule?
Its GI50 is 1700 nM.

What about the TGI [25] of the same molecule?
Its TGI is 7300 nM.

And the GI50 [26]?
The GI50 was 1700 nM.

And the TGI [26]?
Its TGI is 3120 nM.

What about the GI50 [27] of the same molecule?
The GI50 was 1580 nM.

And the TGI [27]?
Its TGI is 3050 nM.

And the GI50 [28]?
The GI50 was 1830 nM.

What about the TGI [28] of the same molecule?
Its TGI is 3670 nM.

What about the GI50 [29] of the same molecule?
The GI50 was 1960 nM.

And the TGI [29]?
Its TGI is 4030 nM.

And the GI50 [30]?
Its GI50 is 1550 nM.

What about the TGI [30] of the same molecule?
Its TGI is 3210 nM.

And the GI50 [31]?
The GI50 was 1570 nM.

And the TGI [31]?
The TGI was 3730 nM.

What about the GI50 [32] of the same molecule?
Its GI50 is 25100 nM.

What about the TGI [32] of the same molecule?
Its TGI is greater than 100000 nM.

What about the GI50 [33] of the same molecule?
The GI50 was 2550 nM.

And the TGI [33]?
The TGI was 7800 nM.

What about the GI50 [34] of the same molecule?
The GI50 was 2660 nM.

And the TGI [34]?
Its TGI is 8950 nM.

And the GI50 [35]?
Its GI50 is 1820 nM.

What about the TGI [35] of the same molecule?
The TGI was 5070 nM.

What about the GI50 [36] of the same molecule?
The GI50 was 1870 nM.

And the TGI [36]?
Its TGI is 4690 nM.

And the GI50 [37]?
Its GI50 is 4960 nM.

And the TGI [37]?
The TGI was greater than 100000 nM.

And the GI50 [38]?
Its GI50 is 1570 nM.

And the TGI [38]?
Its TGI is 2990 nM.

What about the GI50 [39] of the same molecule?
The GI50 was 2440 nM.

What about the TGI [39] of the same molecule?
The TGI was greater than 100000 nM.

What about the GI50 [40] of the same molecule?
Its GI50 is 2870 nM.

What about the TGI [40] of the same molecule?
The TGI was 11700 nM.

What about the GI50 [41] of the same molecule?
The GI50 was 1580 nM.

What about the TGI [41] of the same molecule?
The TGI was 3090 nM.

What about the GI50 [42] of the same molecule?
The GI50 was 1740 nM.

And the TGI [42]?
Its TGI is 3890 nM.

And the GI50 [43]?
Its GI50 is 1700 nM.

What about the TGI [43] of the same molecule?
The TGI was 3250 nM.

What about the GI50 [44] of the same molecule?
The GI50 was 1600 nM.

What about the TGI [44] of the same molecule?
The TGI was 7550 nM.

And the GI50 [45]?
The GI50 was 1750 nM.

What about the TGI [45] of the same molecule?
The TGI was 6710 nM.

And the GI50 [46]?
The GI50 was 1810 nM.

And the TGI [46]?
The TGI was 3490 nM.

What about the GI50 [47] of the same molecule?
Its GI50 is 1440 nM.

What about the TGI [47] of the same molecule?
The TGI was 2960 nM.

What about the GI50 [48] of the same molecule?
Its GI50 is 1660 nM.

What about the TGI [48] of the same molecule?
The TGI was 3180 nM.

And the GI50 [49]?
Its GI50 is 2240 nM.

What about the TGI [49] of the same molecule?
The TGI was 6010 nM.

And the GI50 [50]?
The GI50 was 1730 nM.

What about the TGI [50] of the same molecule?
Its TGI is 3340 nM.

And the GI50 [51]?
Its GI50 is 1480 nM.

What about the TGI [51] of the same molecule?
The TGI was 2850 nM.

What about the GI50 [52] of the same molecule?
Its GI50 is 2440 nM.

What about the TGI [52] of the same molecule?
Its TGI is 5920 nM.

What about the GI50 [53] of the same molecule?
Its GI50 is 1820 nM.

What about the TGI [53] of the same molecule?
Its TGI is 3680 nM.

What about the GI50 [54] of the same molecule?
The GI50 was 1870 nM.

And the TGI [54]?
Its TGI is 3670 nM.

What about the GI50 [55] of the same molecule?
The GI50 was 2410 nM.

What about the TGI [55] of the same molecule?
The TGI was 9590 nM.
